Structures can show the parent of a compound that is named as a salt. Where two headings read alike, the source gives them in different places.
Tests used:
[1] = target: T1, human serotonin transporter (Homo sapiens (Human), UniProt P31645); test: hSERT reuptake assay (HEK-hSERT, FDSS6000); assay type: cell-based; settings: HEK-hSERT cells
[2] = target: T2, human norepinephrine transporter (Homo sapiens (Human), UniProt P23975); test: hNET reuptake assay (HEK-hNET, FDSS6000); assay type: cell-based; settings: HEK-hNET cells
[3] = target: T1, human serotonin transporter; test: hSERT binding assay ([3H]Imipramine); settings: for inhibition at 10 µM: read-out: hSERT binding assay %-inhibition (10 uM);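 for all read-outs here: displacement of radiolabeled imipramine from the transporter, incubated 30 min at 27 °C in Tris-HCl pH 7.4 with NaCl and KCl, bound radioactivity counted after filtration, nonspecific binding defined with 200 uM imipramine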
[4] = target: T3, human dopamine transporter (Homo sapiens (Human), UniProt Q01959); test: hDAT binding assay ([3H]WIN35,428); settings: for IC50: 8 nM [3H]WIN35,428; for inhibition at 10 µM: read-out: hDAT binding assay %-inhibition (10 uM);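 for all read-outs here: displacement of the radioligand from the transporter membranes, incubated 120 min at 4 °C in Tris-HCl buffer with NaCl, pH 7.4, measured by filter-bound radioactivity counting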
[5] = target: T3, human dopamine transporter; test: hDAT reuptake assay (HEK-hDAT, FDSS6000); assay type: cell-based; settings: HEK-hDAT cells
[6] = target: T2, human norepinephrine transporter; test: hNET binding assay ([3H]Nisoxetine); settings: for inhibition at 10 µM: read-out: hNET binding assay %-inhibition (10 uM)
Method: NE transporter binding assay for evaluating binding of the compound to the norepinephrine transporter was carried out using human recombinant norepinephrine transporter membrane (PerkinElmer Life and Analytical Sciences, USA) expressed in MDCK cells and radioisotope [^3H]Nisoxetine (PerkinElmer).
That is, the test drug, 6 nM [^3H]Nisoxetine, norepinephrine transporter membrane (11 ug/well), 120 mM NaCl and 50 mM Tris-HCl buffer (pH 7.4) containing 5 mM KCl were added to obtain a reaction mixture with a final volume of 0.25 ml. After incubation for 60 minutes at 4° C., the mixture was quickly passed through a Filtermat A glass fiber filter pre-soaked with 0.5% (w/v) PEI (polyethyleneimine) using Inotech Harvester (Inotech) to terminate the reaction. After washing with cold washing buffer (50 mM Tris-HCl, pH 7.4, 0.9% NaCl) solution, the filter was covered with MeltiLex and sealed in a sample bag. After drying in an oven, radioactivity was counted using MicroBeta Plus (Wallac).
Non-specific binding was measured in the presence of 1 uM desipramine. The IC50 value of the test drug was calculated from non-linear regression analysis (GraphPad Prism Program, San Diego, USA) of each %-inhibition value obtained from the drug with concentrations of 7th and 8th steps.

[7] = 10 uM, membrane from MDCK cells
[8] = membrane from MDCK cells, 6 nM [3H]Nisoxetine
[9] = 10 uM, membrane from HEK293 cells
[10] = membrane from HEK293 cells, 2 nM [3H]Imipramine
[11] = 10 uM, membrane from CHO-K1 cells

T2 sequence (P23975 whole entry): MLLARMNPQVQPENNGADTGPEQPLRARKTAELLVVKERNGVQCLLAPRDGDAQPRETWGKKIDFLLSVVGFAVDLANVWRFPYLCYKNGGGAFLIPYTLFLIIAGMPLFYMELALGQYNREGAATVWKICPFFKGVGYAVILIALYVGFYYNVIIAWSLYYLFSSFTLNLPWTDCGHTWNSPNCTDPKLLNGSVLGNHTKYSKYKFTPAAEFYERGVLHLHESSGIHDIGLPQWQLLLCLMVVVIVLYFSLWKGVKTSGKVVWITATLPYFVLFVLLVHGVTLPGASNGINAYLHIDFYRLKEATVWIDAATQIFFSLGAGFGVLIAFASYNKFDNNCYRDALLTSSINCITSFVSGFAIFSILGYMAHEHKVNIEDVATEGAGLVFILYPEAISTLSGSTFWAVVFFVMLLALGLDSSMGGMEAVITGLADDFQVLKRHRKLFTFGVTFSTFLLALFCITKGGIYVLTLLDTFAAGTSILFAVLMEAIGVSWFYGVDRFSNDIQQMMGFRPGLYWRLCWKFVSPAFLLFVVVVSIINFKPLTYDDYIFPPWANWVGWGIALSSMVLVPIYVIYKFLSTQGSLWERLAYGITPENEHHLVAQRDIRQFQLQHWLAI
T3 sequence (Q01959 whole entry): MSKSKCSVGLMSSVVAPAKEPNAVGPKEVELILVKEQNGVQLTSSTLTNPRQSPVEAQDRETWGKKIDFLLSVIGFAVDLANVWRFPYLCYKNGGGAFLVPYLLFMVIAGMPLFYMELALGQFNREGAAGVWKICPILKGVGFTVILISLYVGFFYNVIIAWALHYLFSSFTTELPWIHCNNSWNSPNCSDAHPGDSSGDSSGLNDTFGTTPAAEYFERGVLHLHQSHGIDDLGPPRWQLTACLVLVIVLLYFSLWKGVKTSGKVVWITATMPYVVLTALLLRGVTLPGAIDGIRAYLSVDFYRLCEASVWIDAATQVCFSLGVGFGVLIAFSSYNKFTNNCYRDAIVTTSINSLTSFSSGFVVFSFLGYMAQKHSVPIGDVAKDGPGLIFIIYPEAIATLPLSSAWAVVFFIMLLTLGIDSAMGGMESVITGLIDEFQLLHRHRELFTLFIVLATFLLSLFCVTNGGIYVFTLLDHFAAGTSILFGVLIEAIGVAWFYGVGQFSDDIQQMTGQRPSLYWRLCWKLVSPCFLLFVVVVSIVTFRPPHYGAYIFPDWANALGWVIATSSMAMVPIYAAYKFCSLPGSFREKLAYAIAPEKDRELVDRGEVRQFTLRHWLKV
T1 sequence (P31645 whole entry): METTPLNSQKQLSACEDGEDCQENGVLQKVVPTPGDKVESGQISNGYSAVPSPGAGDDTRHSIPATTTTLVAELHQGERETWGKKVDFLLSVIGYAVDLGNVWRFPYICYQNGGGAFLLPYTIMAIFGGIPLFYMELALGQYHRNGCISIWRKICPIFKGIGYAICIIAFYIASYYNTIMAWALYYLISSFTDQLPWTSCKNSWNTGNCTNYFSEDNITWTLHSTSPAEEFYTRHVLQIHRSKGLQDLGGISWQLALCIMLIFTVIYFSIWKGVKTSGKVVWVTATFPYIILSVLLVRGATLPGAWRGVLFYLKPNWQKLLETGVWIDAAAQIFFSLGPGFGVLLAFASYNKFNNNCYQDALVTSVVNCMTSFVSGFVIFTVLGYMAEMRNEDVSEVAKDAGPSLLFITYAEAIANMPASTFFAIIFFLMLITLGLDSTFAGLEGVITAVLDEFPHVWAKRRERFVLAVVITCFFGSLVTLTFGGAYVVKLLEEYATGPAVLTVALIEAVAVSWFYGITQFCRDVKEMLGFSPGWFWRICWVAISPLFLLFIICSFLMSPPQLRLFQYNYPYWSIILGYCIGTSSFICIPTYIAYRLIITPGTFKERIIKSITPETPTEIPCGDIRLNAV

Cc1ccccc1OC(c1ccc(Cl)c(Cl)c1)C1CNC1.Cl (stereo not shown) [KHG26774, 3-((3,4-dichlorophenyl)(ortho-tolyloxy)methyl)azetidine hydrochloride]
IC50 ([1]; Table 3): 800 nM
IC50 ([2]; Table 3): 2200 nM
IC50 [3]: 11.6 nM
inhibition at 10 µM [3]: 100%
melting point: 194 °C
IC50 ([4]; membrane from CHO-K1 cells): 119 nM
inhibition at 10 µM [4]: 96%
IC50 ([5]; Table 3): 300 nM
inhibition at 10 µM [6, 7]: 100%
IC50 [6, 8]: 25.8 nM

Cl.Clc1ccc(C(OC2CCC2)C2CNC2)cc1Cl (stereo not shown) [KHG27253, 3-(cyclobutoxy(3,4-dichlorophenyl)methyl)azetidine hydrochloride]
IC50 ([1]; Table 4): 25.6 nM
IC50 ([2]; Table 4): 11 nM
melting point: 166.1 °C
IC50 ([5]; Table 4): 33.4 nM

Cl.Clc1ccc(C(OC2CCCCC2)C2CNC2)cc1Cl (stereo not shown) [KHG27255, 3-((cyclohexyloxy)(3,4-dichlorophenyl)methyl)azetidine hydrochloride]
IC50 ([1]; Table 4): 58.4 nM
IC50 ([2]; Table 4): 14.2 nM
melting point: 189.4 °C
IC50 ([5]; Table 4): 54.8 nM

Cl.O=C(OC(c1ccc(Cl)c(Cl)c1)C1CNC1)c1ccccc1 (stereo not shown) [KHG26773, azetidine-3-ly(3,4-dichlorophenyl)methyl benzoate hydrochloride]
IC50 ([1]; Table 3): 900 nM
IC50 ([2]; Table 3): 1100 nM
hSERT binding assay %-inhibition (10 uM) [3, 9]: 100%
IC50 [3, 10]: 69.9 nM
hDAT binding assay %-inhibition (10 uM) [4, 11]: 97%
IC50 ([4]; membrane from CHO-K1 cells): 241 nM
IC50 ([5]; Table 3): 500 nM
hNET binding assay %-inhibition (10 uM) [6, 7]: 100%
IC50 [6, 8]: 214 nM

CCCC(Oc1ccc2ccccc2c1)C1CNC1.Cl (stereo not shown) [KHG27284, 3-(1-(naphthalene-2-yloxy)butyl)azetidine hydrochloride]
IC50 ([1]; Table 4): 8.55 nM
IC50 ([2]; Table 4): 79.5 nM
melting point: 77 °C
IC50 ([5]; Table 4): 710 nM

c1ccc(OC(c2ccccc2)C2CNC2)cc1 (stereo not shown) [KHG26765, hydrochloride]
IC50 ([1]; Table 3): 50 nM
IC50 ([2]; Table 3): 40 nM
inhibition at 10 µM [3, 9]: 98%
IC50 [3, 10]: 112 nM
IC50 ([4]; membrane from CHO-K1 cells): 857 nM
inhibition at 10 µM [4]: 87%
IC50 ([5]; Table 3): 380 nM
inhibition at 10 µM [6, 7]: 90%
IC50 [6, 8]: 1660 nM

Cl.Clc1ccc(C(Oc2ccccc2)C2CNC2)cc1 (stereo not shown) [KHG26766, 3-((4-chlorophenyl)(phenoxy)methyl)azetidine hydrochloride]
IC50 ([1]; Table 3): 40 nM
IC50 ([2]; Table 3): 40 nM
IC50 [3]: 9.2 nM
inhibition at 10 µM [3]: 98%
melting point: 191 °C
IC50 ([4]; membrane from CHO-K1 cells): 227 nM
inhibition at 10 µM [4]: 94%
IC50 ([5]; Table 3): 150 nM
inhibition at 10 µM [6, 7]: 90%
IC50 [6, 8]: 90.2 nM

CN1CC(C(Oc2ccccc2)c2ccc3ccccc3c2)C1 (stereo not shown) [KHG26907, 1-methyl-3-(naphthalene-2-yl(phenoxy)methyl)azetidine]
IC50 ([1]; Table 4): 202 nM
IC50 ([2]; Table 4): 87.9 nM
IC50 ([5]; Table 4): 223 nM

Cl.O=C(OC(c1ccc(Cl)cc1)C1CNC1)c1ccccc1 (stereo not shown) [KHG26772, azetidine-3-ly(4-chlorophenyl)methyl benzoate hydrochloride]
IC50 ([1]; Table 3): 2600 nM
IC50 ([2]; Table 3): 2500 nM
hSERT binding assay %-inhibition (10 uM) [3, 9]: 96%
IC50 [3, 10]: 357 nM
hDAT binding assay %-inhibition (10 uM) [4, 11]: 66%
IC50 ([4]; membrane from CHO-K1 cells): 319 nM
IC50 ([5]; Table 3): 1300 nM
hNET binding assay %-inhibition (10 uM) [6, 7]: 90%
IC50 [6, 8]: 3480 nM

Clc1ccc(C(OC2CCCC2)C2CNC2)cc1Cl (stereo not shown) [KHG27254, 3-((cyclopentyloxy)(3,4-dichlorophenyl)methyl)azetidine hydrochloride]
IC50 ([1]; Table 4): 25.8 nM
IC50 ([2]; Table 4): 15.8 nM
IC50 ([5]; Table 4): 25.8 nM

Clc1ccc(C(Oc2ccccc2)C2CNC2)cc1Cl (stereo not shown) [KHG26767, 3-((3,4-dichlorophenyl)(phenoxy)methyl)azetidine hydrochloride]
IC50 ([1]; Table 3): 50 nM
IC50 ([2]; Table 3): 30 nM
inhibition at 10 µM [3, 9]: 98%
IC50 [3, 10]: 4.3 nM
inhibition at 10 µM [4, 11]: 94%
IC50 ([4]; membrane from CHO-K1 cells): 68.8 nM
IC50 ([5]; Table 3): 60 nM
inhibition at 10 µM [6, 7]: 100%
IC50 [6, 8]: 5.5 nM

Cc1ccc(OC(c2ccc(Cl)c(Cl)c2)C2CNC2)cc1.Cl (stereo not shown) [KHG26776, 3-((3,4-dichlorophenyl)(para-tolyloxy)methyl)azetidine hydrochloride]
IC50 ([1]; Table 3): 700 nM
IC50 ([2]; Table 3): 500 nM
inhibition at 10 µM [3, 9]: 100%
IC50 [3, 10]: 5.67 nM
melting point: 193 °C
IC50 ([4]; membrane from CHO-K1 cells): 168 nM
inhibition at 10 µM [4]: 95%
IC50 ([5]; Table 3): 300 nM
IC50 [6]: 27.1 nM
inhibition at 10 µM [6]: 100%

COC(c1ccc(Cl)c(Cl)c1)C1CNC1.Cl (stereo not shown) [KHG26756, 3-((3,4-dichlorophenyl)(methoxy)methyl)azetidine hydrochloride]
inhibition at 10 µM [3, 9]: 79%
IC50 [3, 10]: 271 nM
melting point: 109 °C
inhibition at 10 µM [4]: 54%
inhibition at 10 µM [6, 7]: 85%
IC50 [6, 8]: 339 nM

CCOC(c1ccc(Cl)c(Cl)c1)C1CNC1.Cl (stereo not shown) [KHG26757, 3-((3,4-dichlorophenyl)(ethoxy)methyl)azetidine hydrochloride]
IC50 [3]: 97.5 nM
inhibition at 10 µM [3]: 83%
melting point: 156 °C
inhibition at 10 µM [4]: 58%
IC50 [6]: 153 nM
inhibition at 10 µM [6]: 86%

CC(C)(C)OC(c1ccc(Cl)c(Cl)c1)C1CNC1.Cl (stereo not shown) [KHG27252, 3-(tertiarybutoxy(3,4-dichlorophenyl)methyl)azetidine hydrochloride]
IC50 ([1]; Table 4): 87 nM
IC50 ([2]; Table 4): 96 nM
melting point: 159.9 °C
IC50 ([5]; Table 4): 100 nM

Cl.Clc1ccc(C(OCc2ccccc2)C2CNC2)cc1 (stereo not shown) [KHG26769, 3-((benzyloxy)(4-chlorophenyl)methyl)azetidine hydrochloride]
IC50 ([1]; Table 3): 1500 nM
IC50 ([2]; Table 3): 500 nM
inhibition at 10 µM [3, 9]: 100%
IC50 [3, 10]: 21.6 nM
melting point: 184 °C
IC50 ([4]; membrane from CHO-K1 cells): 290 nM
inhibition at 10 µM [4]: 84%
IC50 ([5]; Table 3): 800 nM
inhibition at 10 µM [6, 7]: 94%
IC50 [6, 8]: 1340 nM

Cl.c1ccc(COC(c2ccccc2)C2CNC2)cc1 (stereo not shown) [KHG26768, 3-((benzyloxy)(phenyl)methyl)azetidine hydrochloride]
IC50 ([1]; Table 3): 4600 nM
IC50 ([2]; Table 3): 800 nM
inhibition at 10 µM [3, 9]: 97%
IC50 [3, 10]: 82.9 nM
melting point: 185 °C
IC50 ([4]; membrane from CHO-K1 cells): 985 nM
inhibition at 10 µM [4]: 90%
IC50 ([5]; Table 3): 1900 nM
inhibition at 10 µM [6, 7]: 84%
IC50 [6, 8]: 2300 nM

Cl.Clc1ccc(C(OCc2ccccc2)C2CNC2)cc1Cl (stereo not shown) [KHG26770, 3-((benzyloxy)(3,4-dichlorophenyl)methyl)azetidine hydrochloride]
IC50 ([1]; Table 3): 900 nM
IC50 ([2]; Table 3): 700 nM
inhibition at 10 µM [3, 9]: 98%
IC50 [3, 10]: 7.81 nM
melting point: 128 °C
IC50 ([4]; membrane from CHO-K1 cells): 23.2 nM
inhibition at 10 µM [4]: 96%
IC50 ([5]; Table 3): 800 nM
inhibition at 10 µM [6, 7]: 99%
IC50 [6, 8]: 93.1 nM

— US9120771B2, “Azetidine derivative and antidepressant composition including the same” (KOREA INSTITUTE OF SCIENCE AND TECHNOLOGY, priority 2011, dated 2015)
